Test results as given in the NIST ThermoML archive (doi:10.1021/acs.jced.5b01057).
Numbers after ± are expanded uncertainties.

Assay: mn = molality of the nth substance listed, in mol/kg
Conditions: for surface tension liquid-gas: Pendant drop shape; for electrical conductivity: 100 kPa, Liquid, Alternating current cell with electrodes

`CCCCCCCCCCCC[NH2+]C1O[C@H](CO)[C@@H](O[C@@H]2O[C@H](CO)[C@H](O)[C@H](O)[C@H]2O)[C@H](O)[C@H]1O.CCCCCCCCCCCC[NH2+]C1O[C@H](CO)[C@@H](O[C@@H]2O[C@H](CO)[C@H](O)[C@H](O)[C@H]2O)[C@H](O)[C@H]1O.O=C([O-])CC(=O)[O-]` (some centres not stated) [N-dodecyllactosylammonium propanedioate] + O showed a surface tension liquid-gas (298.15 K, m1 = 0.0005) of 68.12 ± 1.5 mN/m, a surface tension liquid-gas (298.15 K, m1 = 0.001) of 61.14 ± 1.3 mN/m and a surface tension liquid-gas (298.15 K, m1 = 0.0015) of 55.99 ± 1.2 mN/m. The surface tension liquid-gas (298.15 K, m1 = 0.002) was 51.91 ± 1.1 mN/m, the surface tension liquid-gas (298.15 K, m1 = 0.0025) was 47.5 ± 1 mN/m and the surface tension liquid-gas (298.15 K, m1 = 0.003) was 44.9 ± 0.98 mN/m. It also gave a surface tension liquid-gas (298.15 K, m1 = 0.004) of 40.37 ± 0.88 mN/m, a surface tension liquid-gas (298.15 K, m1 = 0.005) of 35.39 ± 0.78 mN/m and a surface tension liquid-gas (298.15 K, m1 = 0.006) of 32.88 ± 0.73 mN/m. For the same molecule, the surface tension liquid-gas (298.15 K, m1 = 0.007) was 30.63 ± 0.68 mN/m, the surface tension liquid-gas (298.15 K, m1 = 0.008) was 28.97 ± 0.64 mN/m and the electrical conductivity (298.15 K, m1 = 0.00159) was 0.00597 ± 0.00061 S/m. It also gave an electrical conductivity (298.15 K, m1 = 0.00317) of 0.0115 ± 0.0012 S/m, an electrical conductivity (298.15 K, m1 = 0.00474) of 0.0168 ± 0.0017 S/m and an electrical conductivity (298.15 K, m1 = 0.00552) of 0.0194 ± 0.002 S/m. It also gave an electrical conductivity (298.15 K, m1 = 0.0063) of 0.0227 ± 0.0023 S/m, an electrical conductivity (298.15 K, m1 = 0.00707) of 0.0251 ± 0.0026 S/m and an electrical conductivity (298.15 K, m1 = 0.00784) of 0.0271 ± 0.0027 S/m. For the same molecule, the electrical conductivity (298.15 K, m1 = 0.00861) was 0.0288 ± 0.0029 S/m, the surface tension liquid-gas (323.15 K, m1 = 0.0004) was 65.73 ± 1.4 mN/m and the surface tension liquid-gas (323.15 K, m1 = 0.0006) was 62.69 ± 1.4 mN/m. The surface tension liquid-gas (323.15 K, m1 = 0.0008) was 59.26 ± 1.3 mN/m, the surface tension liquid-gas (323.15 K, m1 = 0.001) was 56.85 ± 1.2 mN/m and the surface tension liquid-gas (323.15 K, m1 = 0.0014) was 52.69 ± 1.1 mN/m. The surface tension liquid-gas (323.15 K, m1 = 0.002) was 47.4 ± 1 mN/m, the surface tension liquid-gas (323.15 K, m1 = 0.0024) was 44.7 ± 0.98 mN/m and the surface tension liquid-gas (323.15 K, m1 = 0.003) was 41.32 ± 0.9 mN/m. For the same molecule, the surface tension liquid-gas (323.15 K, m1 = 0.004) was 37.19 ± 0.82 mN/m, the surface tension liquid-gas (323.15 K, m1 = 0.005) was 33.3 ± 0.73 mN/m and the surface tension liquid-gas (323.15 K, m1 = 0.006) was 30.53 ± 0.68 mN/m. It also gave a surface tension liquid-gas (323.15 K, m1 = 0.007) of 28.43 ± 0.63 mN/m, a surface tension liquid-gas (323.15 K, m1 = 0.008) of 26.79 ± 0.6 mN/m and an electrical conductivity (323.15 K, m1 = 0.00159) of 0.00958 ± 0.00097 S/m. It also gave an electrical conductivity (323.15 K, m1 = 0.00317) of 0.0164 ± 0.0017 S/m, an electrical conductivity (323.15 K, m1 = 0.00474) of 0.0257 ± 0.0026 S/m and an electrical conductivity (323.15 K, m1 = 0.0063) of 0.0329 ± 0.0033 S/m. For the same molecule, the electrical conductivity (323.15 K, m1 = 0.00784) was 0.0387 ± 0.0039 S/m.
Work on `CCC(=O)[O-].CCCCCCCCCCCC[NH2+]C1O[C@H](CO)[C@@H](O[C@@H]2O[C@H](CO)[C@H](O)[C@H](O)[C@H]2O)[C@H](O)[C@H]1O` (some centres not stated) [N-dodecyllactosylammonium propanoate] + O yielded a surface tension liquid-gas (323.15 K, m1 = 0.2) of 67.63 ± 0.79 mN/m, a surface tension liquid-gas (323.15 K, m1 = 0.3) of 63.03 ± 0.74 mN/m and a surface tension liquid-gas (323.15 K, m1 = 0.4) of 58.77 ± 0.71 mN/m. It also gave a surface tension liquid-gas (323.15 K, m1 = 0.5) of 53.31 ± 0.65 mN/m, a surface tension liquid-gas (323.15 K, m1 = 0.6) of 50.73 ± 0.63 mN/m and a surface tension liquid-gas (323.15 K, m1 = 0.7) of 45.91 ± 0.58 mN/m. The surface tension liquid-gas (323.15 K, m1 = 0.8) was 42.76 ± 0.55 mN/m, the surface tension liquid-gas (323.15 K, m1 = 0.9) was 39.81 ± 0.52 mN/m and the surface tension liquid-gas (323.15 K, m1 = 1) was 37.73 ± 0.5 mN/m. It also gave a surface tension liquid-gas (323.15 K, m1 = 1.1) of 35.61 ± 0.48 mN/m, a surface tension liquid-gas (323.15 K, m1 = 1.2) of 34.86 ± 0.48 mN/m and an electrical conductivity (323.15 K, m1 = 0.2) of 0.001042 ± 1e-06 S/m. It also gave an electrical conductivity (323.15 K, m1 = 0.4) of 0.001921 ± 1e-06 S/m, an electrical conductivity (323.15 K, m1 = 0.6) of 0.00272 ± 1e-05 S/m and an electrical conductivity (323.15 K, m1 = 0.79) of 0.00355 ± 1e-05 S/m. The electrical conductivity (323.15 K, m1 = 0.99) was 0.00435 ± 1e-05 S/m and the electrical conductivity (323.15 K, m1 = 1.19) was 0.00512 ± 1e-05 S/m.
`O` [water] + CCC(=O)[O-].CCCCCCCCCCCC[NH2+]C1O[C@H](CO)[C@@H](O[C@@H]2O[C@H](CO)[C@H](O)[C@H](O)[C@H]2O)[C@H](O)[C@H]1O gave a surface tension liquid-gas (323.15 K, m2 = 0) of 68.57 ± 0.79 mN/m and an electrical conductivity (323.15 K, m2 = 0) of 0.0001534 ± 1e-07 S/m.
In the case of `O` [water] + CCCCCC(=O)[O-].CCCCCCCCCCCC[NH2+]C1O[C@H](CO)[C@@H](O[C@@H]2O[C@H](CO)[C@H](O)[C@H](O)[C@H]2O)[C@H](O)[C@H]1O, the surface tension liquid-gas (323.15 K, m2 = 0) is reported as 68.72 ± 0.79 mN/m and the electrical conductivity (323.15 K, m2 = 0) is reported as 0.000255 ± 1e-06 S/m.
For `O` [water] + CCCCCCCCCCCC[NH2+]C1O[C@H](CO)[C@@H](O[C@@H]2O[C@H](CO)[C@H](O)[C@H](O)[C@H]2O)[C@H](O)[C@H]1O.CCCCCCCCCCCC[NH2+]C1O[C@H](CO)[C@@H](O[C@@H]2O[C@H](CO)[C@H](O)[C@H](O)[C@H]2O)[C@H](O)[C@H]1O.O=C([O-])CC(=O)[O-], the surface tension liquid-gas (298.15 K, m2 = 0) was 71.76 ± 1.6 mN/m and the surface tension liquid-gas (323.15 K, m2 = 0) was 68.05 ± 1.5 mN/m.
With `O` [water] + CCCCCCCCCCCC[NH2+]C1O[C@H](CO)[C@@H](O[C@@H]2O[C@H](CO)[C@H](O)[C@H](O)[C@H]2O)[C@H](O)[C@H]1O.CCCCCCCCCCCC[NH2+]C1O[C@H](CO)[C@@H](O[C@@H]2O[C@H](CO)[C@H](O)[C@H](O)[C@H]2O)[C@H](O)[C@H]1O.O=C([O-])CCCCC(=O)[O-] the surface tension liquid-gas (298.15 K, m2 = 0) was 72.71 ± 1.6 mN/m and the surface tension liquid-gas (323.15 K, m2 = 0) was 68.94 ± 1.5 mN/m.
